Test results as given in patent US9193697B2, “Oxazole derivatives useful as modulators of FAAH” (MERCK SHARP & DOHME CORP., priority 2010, dated 2015).
pIC50: −log10 of the molar value.

Biological target: human FAAH (Fatty Acid Amide Hydrolase) (Homo sapiens (Human), UniProt O00519)
Test: FAAH inhibition, human FAAH CHO whole cell format
Type: cell-based
Description: To assist in assay development stable cell lines for human, murine and rat full length FAAH were developed. […] The full length FAAH was subcloned into the mammalian expression vector, pcDEF.neo, using XbaI and EcoRI restriction sites and used for stable cell line generation.
The full length murine FAAH was subcloned into the mammalian expression vector, pcDEFneo using either EcoRI (murine) or KpnI and EcoRI (rat) restriction sites. Chinese hamster ovary cells (CHO) were transfected following manufacturers protocol (AMAXA). Forty eight hours post transfection, cells were trypsinized and transferred to 96 well plates in Iscove's DMEM media supplemented with 2 mM Glutamine, 10% fetal calf serum, 1 mg/ml geneticin and HT Supplement (0.1 mM sodium hypoxanthine, 0.016 mM thymidine) in order to isolate single clones. […] Following removal of tissue culture media cells were dislodged following addition of Cellstripper (Mediatech, Inc. Manassas, Va.) and transferred to 96 well black clear bottom assay plate, centrifuged at 1,000 rpm for 3 mins and media removed and replaced with assay buffer (50 mM Tris pH8.0, 1 mM EDTA, 0.1% fatty acid free BSA). The reaction was initiated by addition of fluorescent substrate, AMC Arachidonoyl Amide (Cayman Chemical, Ann Arbor, Mich.) to 1 μM and reaction allowed to proceed for 2 hours at room temperature. Release of fluorescence was monitored in a CytoFluor Multiplate Reader.
Assays are performed on either cell lysate or microsome fractions prepared as described or in whole cell format employing either the fluorescent substrate AAMCA (Cayman chemical, Ann Arbor, Mich.,) or ^3H-anandamide ([ETHANOLAMINE-1-3H] American Radiolabeled Chemicals; 1 mCi/ml). […] AAMCA substrate was used to achieve a final concentration of 1 μM and reaction allowed to proceed at room temperature for 1-3 hours. […] Whole cell assay is conducted with cells harvested after rinsing tissue culture flasks three times with Ca^++Mg^++ free PBS, incubating for 10 min in Enzyme free dissociation media and centrifuging for 5 minutes at 1,000 rpm in table top centrifuge. Cells are resuspended in assay buffer at desired cell number in (4×10^4 cells/assay in 96-well format; 1×10^4 cells/assay in 384-well format) and assayed as described.

human FAAH (Fatty Acid Amide Hydrolase), sequence (O00519 whole entry): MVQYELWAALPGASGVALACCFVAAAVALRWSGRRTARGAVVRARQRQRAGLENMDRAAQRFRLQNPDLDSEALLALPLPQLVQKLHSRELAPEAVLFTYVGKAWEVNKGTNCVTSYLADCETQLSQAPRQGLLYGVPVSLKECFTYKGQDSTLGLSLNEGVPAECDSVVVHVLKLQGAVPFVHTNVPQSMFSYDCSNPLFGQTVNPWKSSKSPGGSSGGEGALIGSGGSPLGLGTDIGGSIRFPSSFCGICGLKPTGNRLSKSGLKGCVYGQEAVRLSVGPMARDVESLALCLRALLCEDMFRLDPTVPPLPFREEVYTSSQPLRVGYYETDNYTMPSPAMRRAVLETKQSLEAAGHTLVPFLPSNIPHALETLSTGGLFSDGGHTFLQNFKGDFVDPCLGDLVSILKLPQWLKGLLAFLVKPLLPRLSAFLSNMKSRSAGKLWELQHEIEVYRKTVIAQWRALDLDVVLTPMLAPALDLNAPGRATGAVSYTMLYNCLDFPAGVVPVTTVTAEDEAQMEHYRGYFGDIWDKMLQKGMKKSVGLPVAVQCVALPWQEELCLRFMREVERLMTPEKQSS

Structure (SMILES)	pIC50
CC(C)(O)c1ccc(-c2nc(C3CCOCC3)oc2Sc2ccc(Cl)cn2)cn1 [Example A7.1, 2-(5-{5-[(5-chloropyridin-2-yl)sulfanyl]-2-(tetrahydro-2H-pyran-4-yl)-1,3-oxazol-4-yl}pyridin-2-yl)propan-2-ol]	6.50
CC(C)(O)c1ccc(-c2nc(C3CCOCC3)oc2Sc2ncc(Cl)cn2)cn1 [Example A7.3, 2-(5-{5-[(5-chloropyrimidin-2-yl)sulfanyl]-2-(tetrahydro-2H-pyran-4-yl)-1,3-oxazol-4-yl}pyridin-2-yl)propan-2-ol]	6.07
COc1ccc(Sc2oc(C3CCOCC3)nc2-c2ccc(C(C)(C)O)nc2)nc1 [Example A7.4, 2-(5-{5-[(5-methoxypyridin-2-yl)sulfanyl]-2-(tetrahydro-2H-pyran-4-yl)-1,3-oxazol-4-yl}pyridin-2-yl)propan-2-ol]	6.34
CC(C)(O)c1ccc(-c2nc(C3CCOCC3)oc2Sc2ccc(F)cn2)cn1 [Example A7.5, 2-(5-{5-[(5-fluoropyridin-2-yl)sulfanyl]-2-(tetrahydro-2H-pyran-4-yl)-1,3-oxazol-4-yl}pyridin-2-yl)propan-2-ol]	5.37
CC(C)(O)c1ccc(-c2nc(C3CCOCC3)oc2Sc2ccc(C3CC3)cn2)cn1 [Example A7.6, 2-(5-{5-{(5-cyclopropylpyridin-2-yl)sulfanyl]-2-(tetrahydro-2H-pyran-4-yl)-1,3-oxazol-4-yl}pyridin-2-yl)propan-2-ol]	5.38
CC(C)(O)c1ccc(-c2nc(C3CCOCC3)oc2Sc2ccc(OC(F)F)cn2)cn1 [Example A7.7, 2-{5-[5-{[5-(difluoromethoxy)pyridin-2-yl]sulfanyl}-2-(tetrahydro-2H-pyran-4-yl)-1,3-oxazol-4-yl]pyridin-2-yl}propan-2-ol]	5.65
COc1ccc(Sc2oc(C3CCOCC3)nc2-c2ccc(C(C)(C)O)nc2)cn1 [Example A7.8, 2-(5-{5-{(6-methoxypyridin-3-yl)sulfanyl]-2-(tetrahydro-2H-pyran-4-yl)-1,3-oxazol-4-yl}pyridin-2-yl)propan-2-ol]	5.93
CC(C)(O)c1ccc(-c2nc(C3CCOCC3)oc2Sc2cccc(Cl)c2)cn1 [Example A7.9, 2-(5-{5-[(3-chlorophenyl)sulfanyl]-2-(tetrahydro-2H-pyran-4-yl)-1,3-oxazol-4-yl}pyridin-2-yl)propan-2-ol]	≤ 5.00
CC(C)(O)c1ccc(-c2nc(C3CCOCC3)oc2Sc2ccccc2Cl)cn1 [Example A7.10, 2-(5-{5-[(2-chlorophenyl)sulfanyl]-2-(tetrahydro-2H-pyran-4-yl)-1,3-oxazol-4-yl}pyridin-2-yl)propan-2-ol]	≤ 5.00
CC(C)(O)c1ccc(-c2nc(C3CCOCC3)oc2Cc2ccc(Cl)cc2)cn1 [Example A7.11, 2-{5-[5-(4-chlorobenzyl)-2-(tetrahydro-2H-pyran-4-yl)-1,3-oxazol-4-yl]pyridin-2-yl}propan-2-ol]	6.15
CC(C)(O)c1ccc(-c2nc(C3CCOCC3)oc2Oc2ccc(Cl)cc2)cn1 [Example A7.12, 2-{5-[5-(4-chlorophenoxy)-2-(tetrahydro-2H-pyran-4-yl)-1,3-oxazol-4-yl]pyridin-2-yl}propan2-ol]	6.54
CN1CCN(CCOC(=O)N2CCC(c3nc(-c4ccc([S+](C)[O-])cc4)c(Sc4ccc(Cl)cn4)o3)CC2)CC1 (stereo not drawn) [Example A7.28, 2-(4-methylpiperazin-1-yl)ethyl 4-{5-[(5-chloropyridin-2-yl)sulfanyl]-4-[4-(methylsulfinyl)phenyl]-1,3-oxazol-2-yl}piperidine-1-carboxylate]	≤ 5.00
COC(=O)N1CCC(c2nc(C3CCOCC3)oc2Sc2ccc(Cl)cn2)CC1 [Example A7.32, methyl 4-{5-[(5-chloropyridin-2-yl)sulfanyl]-2-(tetrahydro-2H-pyran-4-yl)-1,3-oxazol-4-yl}piperidine-1-carboxylate]	6.85
CC(=O)N1CCC(c2nc(C3CCOCC3)oc2Sc2ccc(Cl)cn2)CC1 [Example A7.33, 1-(4-{5-[(5-chloropyridin-2-yl)sulfanyl]-2-(tetrahydro-2H-pyran-4-yl)-1,3-oxazol-4-yl}piperidin-1-yl)ethanone]	5.74
CCOC(=O)N1CCC(c2nc(C3CCOCC3)oc2Sc2ccc(Cl)cn2)CC1 [Example A7.34, ethyl 4-{5-[(5-chloropyridin-2-yl)sulfanyl}-2-(tetrahydro-2H-pyran-4-yl)-1,3-oxazol-4-yl}piperidine-1-carboxylate]	6.82
O=C(OCc1ccccc1)N1CCC(c2nc(C3CCOCC3)oc2Sc2ccc(Cl)cn2)CC1 [Example A7.35, benzyl 4-{5-[(5-chloropyridin-2-yl)sulfanyl]-2-(tetrahydro-2H-pyran-4-yl)-1,3-oxazol-4-yl}piperidine-1-carboxylate]	≤ 5.00
CC(C)COC(=O)N1CCC(c2nc(C3CCOCC3)oc2Sc2ccc(Cl)cn2)CC1 [Example A7.36, 2-methylpropyl 4-{5-[(5-chloropyridin-2-yl)sulfanyl]-2-(tetrahydro-2H-pyran-4-yl)-1,3-oxazol-4-yl}piperidine-1-carboxylate]	≤ 5.00
CC(C)OC(=O)N1CCC(c2nc(C3CCOCC3)oc2Sc2ccc(Cl)cn2)CC1 [Example A7.37, propan-2-yl 4-{5-[(5-chloropyridin-2-yl)sulfanyl]-2-(tetrahydro-2H-pyran-4-yl)-1,3-oxazol-4-yl}piperidine-1-carboxylate]	5.72
COCCOC(=O)N1CCC(c2nc(C3CCOCC3)oc2Sc2ccc(Cl)cn2)CC1 [Example A7.38]	≤ 5.00
COc1ccc(OC(=O)N2CCC(c3nc(C4CCOCC4)oc3Sc3ccc(Cl)cn3)CC2)cc1 [Example A7.39, 4-methoxyphenyl 4-{5-[(5-chloropyridin-2-yl)sulfanyl]-2-(tetrahydro-2H-pyran-4-yl)-1,3-oxazol-4-yl}piperidine-1-carboxylate]	5.55
CCNC(=O)N1CCC(c2nc(C3CCOCC3)oc2Sc2ccc(Cl)cn2)CC1 [Example A7.40, 4-{5-[(5-chloropyridin-2-yl)sulfanyl]-2-(tetrahydro-2H-pyran-4-yl)-1,3-oxazol-4-yl}-N-ethylpiperidine-1-carboxamide]	5.01
C[N+]1(C)CCN(c2ccc(-c3nc(C4CCOCC4)oc3Sc3ccc(Cl)cc3)cn2)CC1 [Example B5.14, 4-(5-{5-[(4-chlorophenyl)sulfanyl]-2-(tetrahydro-2H-pyran-4-yl)-1,3-oxazol-4-yl}pyridin-2-yl)-1,1-dimethylpiperazin-1-ium]	≤ 5.00
CC(c1ccc(-c2nc(C3CCOCC3)oc2Sc2ccc(Cl)cc2)cc1)N1CCOCC1 (stereo not drawn) [Example B5.17, 4-[1-(4-{5-[(4-chlorophenyl)sulfanyl]-2-(tetrahydro-2H-pyran-4-yl)-1,3-oxazol-4-yl}phenyl)ethyl]morpholine]	5.82
O=C(c1ccc(-c2nc(C3CCOCC3)oc2Sc2ccc(Cl)cc2)cc1)N1CC2CC1CO2 (stereo not drawn) [Example B5.18, (4-{5-[(4-chlorophenyl)sulfanyl]-2-(tetrahydro-2H-pyran-4-yl)-1,3-oxazol-4-yl}phenyl)(2-oxa-5-azabicyclo[2.2.1]hept-5-yl)methanone]	6.43
O=C(c1ccc(-c2nc(C3CCOCC3)oc2Sc2ccc(Cl)cc2)cc1)N1CCC(O)CC1 [Example B5.19, (4-{5-[(4-chlorophenyl)sulfanyl]-2-(tetrahydro-2H-pyran-4-yl)-1,3-oxazol-4-yl}phenyl)(4-hydroxypiperidin-1-yl)methanone]	5.57
O=C(c1ccc(-c2nc(C3CCOCC3)oc2Sc2ccc(Cl)cc2)cc1)N1CCOC1 [Example B5.20, (4-{5-[(4-chlorophenyl)sulfanyl]-2-(tetrahydro-2H-pyran-4-yl)-1,3-oxazol-4-yl}phenyl)(1,3-oxazolidin-3-yl)methanone]	6.42
Clc1ccc(Sc2oc(C3CCOCC3)nc2-c2ccc(N3CCNCC3)cc2)cc1 [Example B5.21, 1-(4-{5-[(4-chlorophenyl)sulfanyl]-2-(tetrahydro-2H-pyran-4-yl)-1,3-oxazol-4-yl}phenyl)piperazine]	6.15
O=S1(=O)CCN(c2ccc(-c3nc(C4CCOCC4)oc3Sc3ccc(Cl)cc3)cc2)CC1 [Example B5.22, 4-(4-{5-[(4-chlorophenyl)sulfanyl]-2-(tetrahydro-2H-pyran-4-yl)-1,3-oxazol-4-yl}phenyl)thiomorpholine 1,1-dioxide]	7.39
Clc1ccc(Sc2oc(C3CCOCC3)nc2-c2ccc3nncn3c2)cc1 [Example B5.23, 6-{5-[(4-chlorophenyl)sulfanyl]-2-(tetrahydro-2H-pyran-4-yl)-1,3-oxazol-4-yl}[1,2,4]triazolo[4,3-a]pyridine]	6.11
O=C(c1ccc(-c2nc(C3CCOCC3)oc2Sc2ccc(Cl)cc2)cn1)N1CCOCC1 [Example B5.24, (5-{5-[(4-chlorophenyl)sulfanyl]-2-(tetrahydro-2H-pyran-4-yl)-1,3-oxazol-4-yl}pyridin-2-yl)(morpholin-4-yl)methanone]	≤ 5.00
